The numbers were not newly measured in patent US10213490B2, “Compositions for providing agents that degrade in water” (VIRUN, INC., priority 2015, dated 2019), which cites them from elsewhere.

Take `N[C@@H](CCC(=O)N[C@@H](CS)C(=O)NCC(=O)O)C(=O)O` [glutathione]: the glutathione remaining entry (stored in water at pH 2 and 7, after 7 days) was “approximately 65%”. Also, the glutathione degraded (stored in water, pH 3 to 6, 7 days) is given as 20%.
